From US7252926B2, “Planographic printing plate material and preparing process of planographic printing plate” (Konica Minolta Medical & Graphic, Inc., priority 2003, dated 2007)

Assay: Solubility of the dye in methyl ethyl ketone (MEK)
Format: physicochemical
Conditions: dye dissolved in methyl ethyl ketone; wt % at 25° C.
Experimental: An anionic dye of the present invention dissolving in an amount of not less than 1% indicates an anionic dye dissolving in methyl ethyl ketone not less than 1 wt % at 25° C. More preferably, an anionic dye dissolving in methyl ethyl ketone in an amount of not less than 1.5 wt %. And still more preferably, it is not less than 2 wt %, and specifically preferably, it is not less than 2.5 wt %.

| Compound | MEK Solubility (%) |
| --- | --- |
| CCCCN1C(=O)C(=C2C=C(C)c3ccc(N(CC)CC)cc3O2)C(=O)N(CCCC)C1=S [Dye1 (nonion)] | 2% |
| Cn1c(-c2ccccc2)c(/C=C/C2=[N+](C)c3cc(Cl)ccc3C2(C)C)c2ccccc21 [Dye2 (cation)] | 1% |
